We go through 2 substances from patent US20090209620A1, “Direct Reversal Of The Suppressive Function Of CD4+Regulatory T Cells Via Toll-Like Receptor 8 Signaling” (priority 2005, published 2009).

Entries after “also recorded” stand apart in the source; their conditions may differ. In the oligonucleotide strings, read from the 5' end, every base follows the letter of its sugar. An asterisk marks phosphorothioate; unmarked linkages are phosphodiester. Other units and linkages are bracketed, terminal groups are in braces. A string of capitals states the bases alone. d = 2'-deoxy (DNA)

Holding throughout (assay type): cell-based, human
One data set concerns CD4+ Treg cells. Description: Pretreatment of Treg cells, then proliferation assay with naive CD4+ T cells (without DCs). Particulars: Treg cells pretreated 3 days, washed, then mixed with naive CD4+ T cells. The protocol:
C. Pretreatment of Treg cells: 1×10^6 Treg cells were cultured in medium containing CpG-A (3 ug/ml), CpG-B (3 ug/ml), LPS (100 ng/ml), TNF.-α (20 ng/ml), IFN-α (100 ng/ml) or IL-6 (100 ng/ml) for 3 days. After three washes, the pretreated Treg cells were cultured with näive CD4^+ T cells in anti-CD3 mAb-coated plates (without DCs) to determine their suppressive function. After 56 h of culture, [3H]thymidine was added at a final concentration of 1 uCi/well, and cultured for an additional 16 h. The incorporation of [^3H]thymidine was measured with a liquid scintillation counter.
To exclude the possibility that the purified naive CD4^+ T cells might have been contaminated with a small number of monocytes or DCs, cultured CD4^+ Treg cells (100% purity) were pretreated with CpG-A (SEQ ID NO: 1) for 3 days. After three washes, the pretreated CD4^+ Treg cells were mixed with naive CD4^+ T cells in anti-CD3 antibody-coated plates to evaluate their ability to suppress the proliferation of naive CD4^+ T cells.
To determine whether the CpG motif in CpG A confers the ability to reverse the suppressive function of CD4^+ Treg cells, CD4^+ Treg cell lines were pretreated for 3 days with CpG-A (SEQ ID NO: 1), non-CpG-A (CG changed to GC in CpG-A; SEQ ID NO: 3), CpG B (SEQ ID NO: 2) or non-CpG-B (CG changed to GC in CpG-B; SEQ ID NO: 4), and used them in proliferation assays following extensive washes.
Treg cells were pretreated with Poly-G2 (SEQ ID NO: 15) in different concentrations of chloroquine to examine whether acidification is required for the function of guanosine containing oligonucleotides. After extensive washes, the pretreated Treg cells were used for functional assays.

The subject of the next data set is Treg164 cells. Briefly: Reversibility of siRNA-transduced Treg164 cells by Poly-G10 (functional proliferation assay). An excerpt: (§1) Several siRNA sequences (19 nucleotides) for each gene were selected with use of computer-assisted programs. Oligonucleotides containing a siRNA sequence, 8 nucleotide spacers, and a polyT terminator sequence were annealed and then cloned into the HapI and XhoI sites of GFP-expressing pLentilox3.7 vector using methods well known in the art (See, e.g., D. A. Rubinson et al., Nat. Genet. 33, 401-6 (2003)). siRNA was under the control of a U6 promoter. The following DNA sequences used to construct siRNAs for IRAK4, MyD88, and TLR7, 8 and 9, were effective in silencing their corresponding genes:
5×10^6 293T cells were pre-seeded onto 100-mm dishes and transfected with 12 μg siRNA lentiviral DNA, 12 μg VSV-G plasmid DNA and 12 μg packaging viral CMV delta 8.9 plasmid, using Lipofectamine 2000. After the addition of fresh culture medium 8 h later, the cells were cultured for an additional 2-3 days. Viral supernatants were harvested, passed through a […] filter and concentrated by ultracentrifugation at 20,000 rpm for 2 h. Virus pellets were resuspended in a small volume of medium, and viral titers were determined by infecting 293T cells with serially diluted doses of virus. […] Transduction efficiency was analyzed at 3 or 4 days post-transduction, and the cells were sorted into GFP^+and GFP^−cells with a FACS ARIA sorter. […]

The next data set relates to Treg102 cells. Briefly: Reversibility of siRNA-transduced Treg102 cells by Poly-G10 (functional proliferation assay).
Source text: as §1
5×10^6 293T cells were pre-seeded onto 100-mm dishes and transfected with 12 μg siRNA lentiviral DNA, 12 μg VSV-G plasmid DNA and 12 μg packaging viral CMV delta 8.9 plasmid, using Lipofectamine 2000. After the addition of fresh culture medium 8 h later, the cells were cultured for an additional 2-3 days. Viral supernatants were harvested, passed through a […] filter and concentrated by ultracentrifugation at 20,000 rpm for 2 h. Virus pellets were resuspended in a small volume of medium, and viral titers were determined by infecting 293T cells with serially diluted doses of virus. For transduction of T cells, T cells (2×106 ) were first activated by OKT3 (2 ug/ml)-coated plates and then were mixed with the concentrated lentiviral supernatant with a multiplicity of infection (MOI) of 10-15 in a total volume of 0.5 ml T cell medium containing 8 ug/ml polybrene (Sigma), and then span at 1000×g for 1 h at room temperature. After 16 h of incubation, 0.5 ml of T cell medium was added to each well. Forty-eight hours later, the T cells were transduced again with the same concentrated viral supernatants. Transduction efficiency was analyzed at 3 or 4 days post-transduction, and the cells were sorted into GFP^+and GFP^−cells with a FACS ARIA sorter. The sorted cells (GFP^+and GFP^−) and untransduced Treg cells were then used to determine their reversibility by Poly-G10 in functional proliferation assays.
The current model of TLR signaling pathways predicts that TLR1, 2, 5, 6, 7, 8, and 9 use MyD88 as their sole receptor-proximal adaptor to transduce signals, TLR3 uses interferon-regulated factor 3 (IRF3) for the production of IFN-α in response to pathogen recognition, while TLR4 is linked to both MyD88-dependent and MyD88 independent pathways. Since MyD88 is important for the signaling activities of most TLRs, it stood to reason that its dependent pathway, in which IRKA4 transduces signals from MyD88 to TRAF6 and other downstream molecules, would likely be involved in TLR signaling initiated by guanosine-containing oligonucleotides. Four or five eGFP-expressing lentiviral constructs containing U6-driven siRNAs were made for each gene and were tested their abilities to specifically knock down their respective target proteins. In FIG. 3A, the efficiency of knock down by siRNA was determined by Western blot analysis. Both IRAK4 and MyD88 were tagged with a FLAG epitope, and detected by anti-FLAG antibody (M2). 293T cells transfected with either FLAG-IRAK4 or FLAG-MyD88 served as positive controls, while nontranseffected 293T cells were negative controls. The amount of β-actin in each lane served as loading controls for the samples. […] Treg102 cells were next transduced with an IRAK4 siRNAl lentivirus. After 3 days in culture, they were sorted by FACS into transduced (GFP^+) and untransduced (GFP^− control) Treg cell populations (FIG. 3B). The purity of GFP^+ and GFP^− cells was confirmed by FACS analysis. […] This notion was further supported by experiments in which Treg102 cells were transduced with MyD88 siRNAs. […] For FIG. 3C, uninfected parental Treg108 cells and Poly-T10 oligonucleotides served as controls. Data are presented as means±SD and represent results from three independent experiments. Similar results were obtained with Treg164 cell lines. […]

Take G* GGGGACGATCGTCG* G*G*G*G*G [CpG-A]: the “reversal of suppressive function of CD4+ Treg cells after pretreatment” value with CD4+ Treg cells was “reverses their suppressive function; also recorded: reversed the suppressive effect; also recorded: reversed the suppressive activities of CD4^+ Treg cells equally well”.
Consider “Poly-G10: guanosine oligonucleotide with protected phosphorothioate backbone (DNA dG*dG*dG*dG*dG*dG*dG*dG*dG*dG)”, for which the “reversibility of suppression by Poly-G10” value is recorded as “lost the capacity to reverse their suppressive function” in the data set on Treg164 cells (IRAK4 siRNA-transduced (GFP+) Treg164 cells); “lost the capacity to reverse their suppressive function” in the data set with Treg164 cells (MyD88 siRNA-transduced (GFP+) Treg164 cells); “could not be reversed” with Treg102 cells (IRAK4 siRNA-transduced (GFP+) Treg102 cells); “completely lost their ability to respond” in the data set with Treg102 cells (MyD88 siRNA-transduced (GFP+) Treg102 cells); “retained the same reversible suppressive function” in the data set with Treg102 cells (TLR7 siRNA or TLR9 siRNA-transduced (GFP+) Treg cells); “could not be reversed” with Treg102 cells (TLR8 siRNA-transduced (GFP+) Treg102 cells). Moreover, the “reversibility of suppression by Poly-G10” value in the data set with Treg102 cells (Treg cells transduced with control siRNA virus) is on record as “Neither the suppressive activity nor the reversibility of the suppression was affected”; with Treg102 cells (untransduced (GFP-) Treg102 cells) it was “reversed as readily as the parental Treg102 cells”.
